According to article PMC5403886, “A Novel Spiro-Heterocyclic Compound Identified by the Silkworm Infection Model Inhibits Transcription in Staphylococcus aureus” (Frontiers in Microbiology, 2017):

Molecular target: T1, SigA (primary sigma factor of RNA polymerase) (Staphylococcus aureus, UniProt P0A0J0)
T1 construct: His-tagged recombinant SigA (sigA from S. aureus RN4220, pET28a)
Test: pull-down with His-tagged SigA on cobalt magnetic beads, HPLC of eluted compound
Type: binding

T1 sequence (P0A0J0 whole entry): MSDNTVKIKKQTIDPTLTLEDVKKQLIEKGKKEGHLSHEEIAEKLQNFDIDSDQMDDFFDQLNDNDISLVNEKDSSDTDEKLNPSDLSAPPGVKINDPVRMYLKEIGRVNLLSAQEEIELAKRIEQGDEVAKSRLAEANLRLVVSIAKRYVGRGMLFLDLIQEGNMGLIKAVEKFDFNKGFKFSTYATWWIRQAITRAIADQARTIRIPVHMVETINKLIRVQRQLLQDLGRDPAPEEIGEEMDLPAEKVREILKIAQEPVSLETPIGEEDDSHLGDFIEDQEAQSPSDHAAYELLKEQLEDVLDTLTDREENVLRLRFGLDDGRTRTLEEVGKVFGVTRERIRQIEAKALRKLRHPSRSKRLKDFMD

Structure (SMILES): CCCNC(=O)N1CCC2(CC1)Nc1cc(F)ccc1-n1cccc12 [GPI0363, 7-fluoro-N-propylspiro[5H-pyrrolo[1,2-a]quinoxaline-4,4′-piperidine]-1′-carboxamide]
- pull-down with His-tagged SigA on cobalt magnetic beads, HPLC of eluted compound: The peak of GPI0363 appeared when mixed with SigA whereas the peak was not observed when SigA was omitted
